Assay results reported in patent publication US8798939B2, “Methods for designing, selecting and/or optimizing allosteric processing inhibitors for matrix metalloproteinases” (Janssen Pharmaceutica N.V., priority 2011, dated 2014).

Biological target: T1, proMMP9 activation to active MMP9 in HFL-1 cells (Homo sapiens, UniProt P14780)
T1 construct: endogenous in cells; host or cells: HFL-1 (ATCC CCL-153), TNFα plus 30 nM human neutrophil elastase
Experiment: Activation of proMMP9 by human fetal lung fibroblast (HFL-1) cultures (Western blot)
Assay type: cell-based
Details: 3.3 μM, 72 hrs, mAb-L51/82
Protocol: Example 2 was assessed additionally for ability to block the maturation of proMMP9 to active MMP9 in cultures of human fetal lung fibroblasts (HFL-1, American Type Culture Collection #CCL-153). Unlike rat synoviocytes, HFL-1 cells were unable to process proMMP9 to the active form without addition of neutrophil elastase. […] Rather, the function of elastase in this assay may be to inactivate tissue inhibitors of matrix metalloproteinases (TIMPs) that repress endogenous pathways of MMP9 activation (Skold, Liu et al. 1999).
HLF-1 were maintained in monolayer culture in DMEM with 10% FCS and were used between passage numbers 5-15. HLF-1 were embedded in collagen gels as described for rat SCW synoviocytes (vida supra). […] The plates were cultured an additional 72 hrs, at which time MMP9 secreted into the conditioned media was bound to gelatin-sepharose and evaluated by Western blot analysis as described for the rat synoviocyte cultures (vida supra). mAb-51/82 detected three forms of MMP9 in HFL-1 cultures.
A second experiment was performed to determine if the 80 kD form was mature active MMP9 and to determine the potency of Example 2 as an inhibitor of MMP9 maturation in this assay. […] In the absence of Example 2, pAb-1246 readily detected MMP9 with an electrophoretic mobility of approximately 80 kD. […]

T1 sequence (P14780 20-707 limits assumed): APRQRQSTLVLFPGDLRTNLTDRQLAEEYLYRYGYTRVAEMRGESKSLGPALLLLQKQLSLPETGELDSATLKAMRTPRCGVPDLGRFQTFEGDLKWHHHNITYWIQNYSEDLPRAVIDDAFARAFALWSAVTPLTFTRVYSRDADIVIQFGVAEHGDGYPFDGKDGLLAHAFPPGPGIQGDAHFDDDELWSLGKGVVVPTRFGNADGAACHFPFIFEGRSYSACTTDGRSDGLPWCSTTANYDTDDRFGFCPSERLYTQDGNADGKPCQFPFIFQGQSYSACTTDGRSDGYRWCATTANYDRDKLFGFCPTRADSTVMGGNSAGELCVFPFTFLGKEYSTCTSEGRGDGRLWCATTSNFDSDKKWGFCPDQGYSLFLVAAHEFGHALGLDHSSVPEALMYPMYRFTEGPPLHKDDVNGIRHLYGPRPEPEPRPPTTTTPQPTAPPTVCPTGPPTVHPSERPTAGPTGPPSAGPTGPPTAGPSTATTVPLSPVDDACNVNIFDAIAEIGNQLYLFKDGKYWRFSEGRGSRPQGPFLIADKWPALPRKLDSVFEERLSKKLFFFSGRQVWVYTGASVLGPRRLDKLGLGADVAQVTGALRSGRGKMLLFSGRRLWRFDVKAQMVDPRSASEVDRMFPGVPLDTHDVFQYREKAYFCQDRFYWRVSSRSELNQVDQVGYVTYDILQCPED

SMILES: Cc1nc(C)c(-c2csc(Nc3cc(S(N)(=O)=O)ccc3OC(C)C)n2)s1 [Example 2, 3-(2′,4′-Dimethyl-[4,5′]bithiazolyl-2-ylamino)-4-isopropoxy-benzenesulfonamide.HBr]
- Signal Total: 91346 INT * mm^2
